Experimental data taken from patent US20080275136A1, “Use of Glycerol for Improving Cardiac Function” (priority 2005, published 2008).
Read-outs that look alike come from different tables or passages of the source.

What was measured:
heart = conditions: cited from earlier work
[1] = test system: isolated neonatal rat cardiomyocytes; conditions: cited from earlier work
type 2 diabetic patients = conditions: cited from earlier work
perfused rat heart [2] = assay: Incorporation of glycerol in glycerolipids (PL and NPL) in perfused rat heart; conditions: increase in rate
Description: The experiments were performed using the perfusion conditions described in Example 1. At the end of the perfusion, the heart was washed out from the remaining radiolabelled medium by 10 mL of Krebs-Henseleit solution injected through the canula. The hearts were homogenized in 30 mL chloroform/methanol (2/1, v/v) according to FOLCH (1957, aforementioned). The radioactivity of the homogenate was evaluated. A 0.73% NaCl solution was added to the homogenate to cause phase separation. The radioactivity was determined in samples of the aqueous and organic fractions, and the phospholipids (PL) were separated from non-phosphorous lipids (NPL) on silica cartridges (Supelco, Sigma) and the radioactivity of each class was evaluated. The fate of intracellular glycerol was evaluated in these rat hearts by analysing the radioactivity incorporated into phospholipids (PL) and non-phosphorous lipids (NPL), which in the heart represent mainly the triacylglycerol pool.

perfused rat heart [3] = assay: Glycerol uptake in perfused rat heart (total radioactivity of the homogenate)
Description: (§1) The investigations were carried out on a perfused rat heart model (LOPASCHUK and BARR., 1997, aforementioned, SENTEX et al, 2001, aforementioned, FOLCH et al., J Biol Chem, 226, 497-509, 1957). Male Wistar rats (280-330 g) were anaesthetised with sodium pentobarbital (60 mg per kg, i.p.) and heparin was intravenously injected (500 IU/kg). After 1 min, the hearts were excised and placed in a cold (4° C.) perfusion buffer awaiting contractions ceased. The heart was then immediately cannulated through the aorta and perfused according to the Langendorff method at a constant perfusion pressure of 80 cm of water (8 kPa). The perfusion fluid consisted of a modified Krebs-Henseleit bicarbonate buffer (mM concentrations: NaCl 118, NaHCO3 25, MgSO4 1.2, KH2PO4 1.2, KCl 4.7, glucose 5.5 and CaCl2 2.0). […]
(§2) Before use, all solutions were filtered through a 0.8 μm filter (Millipore, Saint Quentin en Yvelines, France) to remove any particulate contaminants. […] The intra-ventricular pressure and the heart rate were recorded together with ECG. Coronary flow was measured by sequentially collecting the effluent. […]
At the end of the perfusion, the heart was washed out from the remaining radiolabelled medium by 10 mL of Krebs-Henseleit solution injected through the canula. […] The radioactivity of the homogenate was evaluated.
The glycerol uptake was evaluated from the total radioactivity of the homogenate.

perfused rat heart [4] = assay: 14CO2 production from [14C]-glycerol in perfused rat heart (mitochondrial energy production); conditions: energy demand raised from 350 to 450 beats/min; whatever the circulating glycerol concentration (0.33 or 3.33 mM)
Description: as §1, with “kPa).” for “kPa). The perfusion fluid consisted of a modified Krebs-Henseleit bicarbonate buffer (mM concentrations: NaCl 118, NaHCO3 25, MgSO4 1.2, KH2PO4 1.2, KCl 4.7, glucose 5.5 and CaCl2 2.0).”
as §2
The cardiac capacity to use glycerol as a metabolic substrate in energy production, according to glycerol availability was evaluated using ^14C-radiolabelled glycerol.
The direct measurement of mitochondrial energy production was made by quantitatively collecting ^14CO2 produced from the perfused hearts. […] The hyamine […] was collected every 10 minutes and the radioactivity evaluated.

perfused rat heart [5] = assay: Simultaneous oxidation of [3H]-palmitate and [14C]-glycerol in perfused rat heart; conditions: extracellular glycerol concentration increased; palmitate 0.4 mM
Description: The influence of cardiac energy demand and circulating glycerol concentration on fatty acid metabolism was evaluated in the heart by following the intracellular palmitate fate with [^3H]-palmitate. The experiments were performed using the perfusion conditions described in Example 1, except that a perfusion solution supplemented with palmitate (0.4 mM) was used. To prepare palmitate-enriched solution, 43.5 g of albumin (fraction bovine, Sigma) was dissolved in 350 mL Krebs-Henselheit buffer. Palmitate was then slowly added to this albumin solution and mixed. The albumin-palmitate mixture was dialysed against Krebs-Henselheit solution at +4° C. (three time 12 h dialysis in 10 basal solution volume). For the final preparation of the palmitate-enriched fluid, 93.5 mL of concentrated solution were incorporated in 2 L of Krebs-Henselheit Radioactive solution was prepared in the same conditions with addition of [^3H]-palmitate (1 μCi/mL). The perfusion solution also contained [^14C]-glycerol to follow glycerol oxidation in the same heart. The oxidations of palmitate and glycerol were evaluated simultaneously using as tracers [^3H]-palmitate and [^14C]-GLYCEROL, respectively. At the end of the perfusion, the oxidized substrates were determined by measuring the radioactivity rejected by the heart in the perfusion medium as [^3H]2O and [^14C]O2, respectively.

[6] = as a function of the extracellular glycerol concentration

In the case of COc1ccc(CN2CCNCC2)c(OC)c1OC [Trimetazidine, reference compound], the cellular glycerol uptake (heart; associated with increased phospholipid synthesis) is listed as “significant increase”, the β-oxidation (heart) is listed as “reduces β-oxidation” and the phospholipid synthesis (heart; in vitro and in vivo) is listed as “increasing the phospholipid synthesis”. The glycerol uptake ([1]; Trimetazidine added) was “increased”, the phospholipid synthesis ([1]; Trimetazidine added) was “increased their synthesis only at high glycerol concentrations” and the triacylglycerol synthesis ([1]; Trimetazidine added) was “no significant effect”.

In the case of CCOC(=O)[C@@]1(CCCCCCOc2ccc(Cl)cc2)CO1 [Etomoxir], the cardiac hypertrophy (heart; chronic treatment) is given as “induced cardiac hypertrophy”, the glucose oxidation (heart; normal and diabetic heart) is given as “increase glucose oxidation” and the insulin sensitivity (type 2 diabetic patients) is given as “improve insulin sensitivity”.

For OCC(O)CO [glycerol], the synthesis of glycerolipids (perfused rat heart [2]; high glycerol concentration (3.33 mM)) is given as “involved in the synthesis of both membrane phospholipids and storage triacylglycerols”, the synthesis of glycerolipids (perfused rat heart [2]; low glycerol concentration (0.33 mM)) is given as “does not influence” and the PL concentration [1, 6] is given as “increased progressively”. For the same molecule, the triacylglycerol concentration [1, 6] was “only increased at higher glycerol concentrations”, the glycerol uptake ([1]; extracellular glycerol concentration from 80 μM to 660 μM) was “increases” and the glycerol uptake (perfused rat heart [3]; high glycerol concentration (3.33 mM), increased energetic demand 350 to 450 beats/min) was “significant increase”. The glycerol uptake (perfused rat heart [3]; low glycerol concentration (0.33 mM), increase in rate 350 to 450 beats/min) was “not significantly modified”, the “mitochondrial production of 14CO2 from glycerol” value (perfused rat heart [4]) was “significantly increased” and the “FA β-oxidation ([3H]2O from palmitate)” value (perfused rat heart [5]) was “reduced”. For the same molecule, the “glycerol oxidation ([14C]O2)” value (perfused rat heart [5]) was “increased”.
